The results in this text go back to patent US11236303B2, “CD34+CD41DIM megakaryocytes progenitors and uses thereof for producing proplatelet-bearing MKs and/or platelets” (INSTITUT NATIONAL DE LA SANTE ET DE LA RECHERCHE MEDICALE …, priority 2015, dated 2022).

“And” between values parts separate entries of the source, which are not always exact repeats. Equal entries are not always repeated.

Assay type in all cases: cell-based, human
In data set [1] the test system is peripheral blood CD34+ cells. Briefly: CD34/CD41 expression by flow cytometry in MK differentiation culture. The procedure:
(§1) CD34^+ cells were seeded in 48-well plates at a density of 4×10^4 per mL in StemSpan SFEM medium supplemented with 20 ng/mL human LDL and CC220 (1×), a cocktail of cytokines containing SCF, TPO, IL-6 and IL-9 (all from Stemcell Technologies), with or without addition of 1 μM SR1 (Cellagen Technology, San Diego, Calif.) (FIG. 1A). On day 7, the cells were harvested, washed and seeded at 5×10^4/mL in StemSpan SFEM medium containing 30 ng/mL TPO with or without 1 μM SR1 for an additional 7 days. The cultures were incubated at 37° C. under normoxic conditions and 5% CO2. On days 7 and 10 of culture, the cells were counted, their viability was measured by propidium iodide exclusion in an automatic cell counter (ADAM, Digital-Bio, Korea) and the expression of CD34, CD41 and CD42b was analyzed in a Gallios flow cytometer using Kaluza software (Beckman Coulter, Villepinte, France). In some experiments, SR1 was replaced by the AhR agonist FICZ (Enzo life sciences, Villeurbane, France) added at 0.2 μM.
In a second protocol, CD34^+ cells were cultured in the presence of mesenchymal stromal cells (MSCs) isolated from human bone marrow (Guilloton F et al., Blood. 2012; 119:2556-2567). MSCs were maintained in α-MEM medium supplemented with 10% fetal bovine serum (Invitrogen, Cergy Pontoise, France) and 2 ng/mL recombinant human (rh) FGF2 (Peprotech, Rocky Hill, N.J.). CD34^+ cells were added to a confluent layer of MSCs at a density of 4×10^4/mL in 48-well plates in StemSpan SFEM medium supplemented with 20 ng/mL human LDL and CC220. On day 7, the cells in suspension were harvested, washed and co-cultured at 5×10^4/mL on a new layer of confluent MSCs in StemSpan SFEM medium containing 30 ng/mL TPO for an additional 7 days (FIG. 5A).
Surface Markers. Cells were analyzed by flow cytometry (Gallios, Beckman Coulter, France) after labeling with anti-CD34-PE-Cy7 (Beckman Coulter, Fullerton, Calif.), anti-CD41-Alexa-488 (ALMA.17), anti-CD42c-PE (RAM.1) and anti-CD42d-Alexa-647 (V.1) mAbs for 30 min at 4° C. The cells were then washed and resuspended in PBS containing 7-AAD (1/50). The acquired data were analyzed with Kaluza software.
(A flow cytometer gives signals particle by particle.)

Data set [2] has as its system peripheral blood CD34+ cells. Briefly: Quantification of proplatelet-bearing MKs in two-step culture of CD34+ cells. The procedure:
as §1
(§2) The percentage of MKs extending proplatelets was determined in the culture wells by phase-contrast microscopy. In each culture, at least 100 MKs were analyzed and images were acquired using a Zeiss Axio Vert.A1 microscope with a 20× objective (Marly-le-Roi, France).

Data set [3] deals with peripheral blood CD34+ cells. Briefly: Determination of the number of platelets produced per seeded cell, two-step culture of CD34+ cells. The procedure:
as §1
In a second protocol, CD34^+ cells were cultured in the presence of mesenchymal stromal cells (MSCs) isolated from human bone marrow (Guilloton F et al., Blood. 2012; 119:2556-2567). MSCs were maintained in α-MEM medium supplemented with 10% fetal bovine serum (Invitrogen, Cergy Pontoise, France) and 2 ng/mL recombinant human (rh) FGF2 (Peprotech, Rocky Hill, N.J.). CD34^+ cells were added to a confluent layer of MSCs at a density of 4×10^4/mL in 48-well plates in StemSpan SFEM medium supplemented with 20 ng/mL human LDL and CC220. […]
CD34^+ cells cultured for 7 days in the presence of CC220 (FIGS. 1A and 5A) or CD34/CD41 sorted cells (FIGS. 4A and 6A) were seeded in a medium containing TPO. […] CD41/CD42c double positive events, having the same scattering properties as washed blood platelets, were counted as platelet-like particles and the number of particles per seeded cell, at day 7 or 10 following experiments, was determined.

For another data set, the system named is CYP1B1. The experiment in a line: CYP1B1 mRNA expression by qPCR (downstream target of AhR). The procedure:
CD41/61 cells were obtained on day 7 or 10 of culture using the antibody ALMA.17 and magnetic beads (EasySep® “Do-It-Yourself” Selection Kit, StemCell Technologies). Total RNA were extracted using an RNeasy® Mini kit (QIAGEN) following manufacturer's instructions. Quantity and quality of total RNA for all samples were evaluated by measuring OD at 260 nm and concentration was adjusted at 50 ng/ml. The RNA samples were stored at −80° C. until use. qRT-PCR was applied under standard conditions using the SYBR Green Master Mix kit on the ABI Prism 7900 Sequence Detection System (PerkinElmer-Cetus, Courtaboeuf, France). The primers for genes were chosen with the assistance of the Oligo 6.0 program (National Biosciences, Plymouth, Minn.) and have been previously described (Bieche I. et al., Pharmacogenetics and genomics. 2007; 17:731-742).
In general terms: In qPCR the cycle at which signal appears reflects the starting amount.

The test system of data set [4] is peripheral blood CD34+ cells. Briefly: Two-step MK differentiation culture: level of proliferation (viable cell count). The procedure: as §1
Data set [5] relates to CD34+CD41dim cells. The experiment in a line: Quantification of proplatelet-bearing MKs from sorted CD34+CD41dim cells. Here is the method:
(§3) The cells recovered on day 10 were incubated with a mixture of Alexa-488-conjugated anti-CD41 (ALMA.17) and PE-Cy7-conjugated anti-CD34 mAbs (BD Biosciences) for 30 min at 4° C. They were then washed in PBS-EDTA and incubated for 30 min in PBS containing 7-AAD (1/50) to select viable cells. The morphologic and sorting gates were determined by FMO (fluorescence minus one) analysis and megakaryocytic precursors were sorted at 500 cells/s according to their CD34/CD41 expression using a FACS Aria II flow cytometer (Becton Dickinson, Mountain View, Calif.) equipped with a 50 μm nozzle and two argon lasers operating at 500 mW and tuned to 488 and 360 nm, respectively (Coherent Radiation, Palo Alto, Calif.). The sorted CD34^+CD41^dim and CD34 CD41^+ cells were then counted and seeded at 4×10^4/mL in 48-well plates in StemSpan medium containing TPO with or without SR1 for 7 days (FIG. 4A).
as §2

In data set [6] the test system is CD34+CD41dim cells. The experiment in a line: Number of platelet-like elements produced per seeded sorted CD34+CD41dim cell. The procedure: as §3, with “4A). CD34^+ cells cultured for 7 days in the presence of CC220 (FIGS. 1A and 5A) or CD34/CD41 sorted cells (FIGS. 4A and 6A) were seeded in a medium containing TPO. […] CD41/CD42c double positive events, having the same scattering properties as washed blood platelets, were counted as platelet-like particles and the number of particles per seeded cell, at day 7 or 10 following experiments, was determined.” for “4A).”

The mark [7] stands for this setting: SR1-derived CD34+CD41dim cells sorted day 10, 7 days in TPO + SR1 (5 μM).

Consider `O=Cc1c2[nH]c3ccccc3c2cc2[nH]c3ccccc3c12` [FICZ], for which the “proportion of CD34+CD41dim cells” value in data set [1] (MSC co-culture with addition of FICZ, data not shown) was “reduced”. Also, the “proplatelet extension of MKs” value in data set [2] (SR1 replaced by FICZ (0.2 μM)) is “dramatic decrease”. In data set [3] (day 14, SR1 replaced by 0.2 μM FICZ), the “number of platelet-like elements per cell seeded on day 7” value worked out at 0.20±0.04 platelets/seeded cell. Also, the “effect on the MSC-induced decrease in CYP1B1 transcripts” value in the data set on CYP1B1 (MSC co-culture with addition of FICZ, day 10) was “reversed”.

As to `CC(C)n1cnc2c(NCCc3ccc(O)cc3)nc(-c3csc4ccccc34)nc21` [SR1, 4-(2-(2-(benzo[b]thiophen-3-yl)-9-isopropyl-9H-purin-6-ylamino)ethyl)phenol], in data set [4] (day 7, over input of CD34+ cells on day 0, with SR1, mean±SEM, n=8), the “fold expansion of the total nucleated cells” value came to 4.2±1.2 fold. Moreover, the “increase in number of cells from day 7 to day 10” value in data set [4] (day 7 to day 10, SR1-treated cultures) was 2.5 times. Moreover, in data set [1] (day 7, expansion step with CC220, SR1-treated), the “decrease in CD34 positivity” value is reported as 8.3%. Besides, in data set [1] (day 7, presence of SR1), the “CD34+CD41+ cells, % of total population” value was 68.9±1.8% and 69%. Further, the “CD34+CD41- cells, % of total population” value in data set [1] (day 7, presence of SR1) came out at 22.4±1.5%. Also, the “CD34-CD41+ cells, % of total population” value in data set [1] (day 7, presence of SR1) was 3.6±0.3%. Besides, the “CD34+CD41+ cells, % of the cells” value in data set [1] (day 10, SR1-treated cultures) was 55.1±4.9% and 55%. The “CD34+CD41dim cells (region R2), % of total cells” value in data set [1] (day 10, SR1 treatment, mean±SEM in 8 experiments) was 36.8±1.9%. The “proportion of CD34+ cells” value in data set [1] (day 10, after passage in TPO alone, SR1 treatment) was 71.6%. Further, in data set [1] (day 10, presence of SR1), the “CD34-CD41+ cells, % of the cells” value is reported as 26.7±4.5%. For the same molecule, the “percentage of MKs extending proplatelets” value in data set [2] (day 14, 1 μM SR1, CC220 day 0-7 then TPO day 7-14) was determined as 34.6±2.1%; in the data set with CD34+CD41dim cells [5] (MSC-derived CD34+CD41dim cells sorted day 10, 7 days in TPO + 5 μM SR1, n=4) it was 49.5±10.5%; with CD34+CD41dim cells [5] (setting [7]), 91.0±2.4%. Moreover, the “number of platelet-like elements per cell seeded on day 7” value in data set [3] (day 14, 1 μM SR1) was 20.72±5.19 platelets/seeded cell. In addition, the “increase in number of platelet particles after addition of SR1 versus control” value in data set [3] (day 14, per cell seeded on day 7) is listed as “about 3 fold”. In the data set on CYP1B1 (day 7 culture, SR1 treated cells, control 579.8±40.8, n=3), this molecule yielded a CYP1B1 expression of 2.5±0.8 arbitrary units. Also, the “proportion of the MKs produced that are proplatelet-bearing MKs” value in the data set with CD34+CD41dim cells [5] (from seeded CD34+CD41dim cells, summary statement) is on record as “About 90%”. The “number of platelet-like elements per seeded cell” value in the data set on CD34+CD41dim cells [6] (setting [7]) is 52.1±8.8 platelets/seeded cell and 52.06±8.79 platelets/seeded cell. For the same molecule, the “enhanced production of platelet-like elements with SR1 as compared to without SR1” value in the data set with CD34+CD41dim cells [6] (sorted CD34+CD41dim cells, 7 days in TPO) turned out to be 6.8 fold.
